Measured values from ChEMBL document CHEMBL5390219, “Benzyl stapled modification and anticancer activity of antimicrobial peptide A4K14-Citropin 1.1” (Bioorg Med Chem Lett, 2023).
Active and inactive are the calls of the source. The rule behind the calls is not given here. *1 amine or outer side, *2 acyl side, *3 side chain or, on linkers, in order; H or OH if unused. Where a SMILES comes first, the peptide text is derived from it. Bridges are numbered along the chain shown (N, C = ends). Biphenyl(4,4'-CH2)2 = c1cc(-c2ccc(C[*:2])cc2)ccc1C[*:1]; mXylylene = c1cc(C[*:1])cc(C[*:2])c1; oXylylene = c1ccc(C[*:2])c(C[*:1])c1; pXylylene = c1cc(C[*:2])ccc1C[*:1]

What was measured:
U-87 MG = assay: Anti-cancer activity against human U-87 MG assessed as cell viability incubated for 48 hrs by CCK-8 assay; assay type: functional, cell-based, U-87MG ATCC
HCT-116 = assay: Anti-cancer activity against human HCT-116 assessed as cell viability incubated for 48 hrs by CCK-8 assay; assay type: functional, cell-based; conditions: HCT-116, 48 h
MCF7 [1] = assay: Anti-cancer activity against human MCF7 assessed as cell viability incubated for 48 hrs by CCK-8 assay; assay type: functional, cell-based; conditions: MCF7, 48 h
MCF7 [2] = assay: Inhibition of cell migration in human MCF7 cells at 5 uM incubated for 36 hrs by crystal violet staining based microscopy analysis; assay type: functional
MCF7 [3] = assay: Induction of apoptosis in human MCF7 cells assessed as late apoptotic cells at 5 uM incubated for 24 hrs by Annexin V-FITC/PI staining based flow cytometry analysis (reference value: 3.54%); assay type: functional
MCF7 [4] = assay: Inhibition of cell migration in human MCF7 cells at 5 uM incubated for 24 hrs by scratch wound healing assay; assay type: functional, cell-based
MCF7 [5] = assay: Induction of apoptosis in human MCF7 cells assessed as early apoptotic cells at 5 uM incubated for 24 hrs by Annexin V-FITC/PI staining based flow cytometry analysis (reference value: 1.01%); assay type: functional
MCF7 [6] = assay: Induction of apoptosis in human MCF7 cells assessed as necrotic cells at 5 uM incubated for 24 hrs by Annexin V-FITC/PI staining based flow cytometry analysis (reference value: 1.94%); assay type: functional
MCF7 [7] = assay: Induction of cell death in human MCF7 cells assessed as reduction in number of viable cells at 10 uM incubated for 24 hrs by calcein-AM/PI staining based analysis; assay type: functional
[8] = Stability of a compound in human serum assessed as half life at 91 mg/mL incubated for 0 to 144 hrs by HPLC-UV analysis; assay type: ADME, cell-free; conditions: time 0-144 hrs
MCF7 [9] = assay: Induction of apoptosis in human MCF7 cells assessed as viable cells at 5 uM incubated for 24 hrs by Annexin V-FITC/PI staining based flow cytometry analysis (reference value: 93.51%); assay type: functional; conditions: read-out: Activity
MCF7 [10] = assay: Induction of cell death in human MCF7 cells at 10 uM incubated for 24 hrs by calcein-AM/PI staining based analysis; assay type: functional

| Compound | IC50 (U-87 MG) [µM] | IC50 (HCT-116) [µM] | IC50 (MCF7 [1]) [µM] | Activity (MCF7 [2]) | Activity (MCF7 [3]) [%] | Activity (MCF7 [4]) | Activity (MCF7 [5]) [%] | Activity (MCF7 [6]) [%] | Activity (MCF7 [7]) | half-life at 91 mg/mL [8] [h] | viability at 5 µM (MCF7 [9]) [%] | Activity (MCF7 [10]) |
| --- | --- | --- | --- | --- | --- | --- | --- | --- | --- | --- | --- | --- |
| CC[C@H](C)[C@H](NC(=O)[C@@H](NC(=O)[C@H](CO)NC(=O)[C@H](C)NC(=O)[C@@H](NC(=O)[C@H](CCCCN)NC(=O)[C@H](CCCCN)NC(=O)[C@@H]1CSCc2cccc(c2)CSC[C@H](NC(=O)CNC(C)=O)C(=O)N[C@@H](Cc2ccccc2)C(=O)N[C@@H](C)C(=O)N[C@@H](C(C)C)C(=O)N1)C(C)C)C(C)C)C(=O)N[C@@H](CCCCN)C(=O)NCC(=O)N[C@@H](CC(C)C)C(N)=O (Ac-GCFAVCKKVASVIKGL-NH2; linker 2-6 via mXylylene) | 57.8 | 106 | 54.7 | – | – | – | – | – | – | – | – | – |
| CC[C@H](C)[C@H](NC(=O)[C@@H](NC(=O)[C@H](CO)NC(=O)[C@H](C)NC(=O)[C@@H](NC(=O)[C@H](CCCCN)NC(=O)[C@H](CCCCN)NC(=O)[C@@H]1CSCc2ccccc2CSC[C@H](NC(=O)CNC(C)=O)C(=O)N[C@@H](Cc2ccccc2)C(=O)N[C@@H](C)C(=O)N[C@@H](C(C)C)C(=O)N1)C(C)C)C(C)C)C(=O)N[C@@H](CCCCN)C(=O)NCC(=O)N[C@@H](CC(C)C)C(N)=O (Ac-GCFAVCKKVASVIKGL-NH2; linker 2-6 via oXylylene) | 11.4 | 13.9 | 12.5 | – | – | – | – | – | – | – | – | – |
| CC[C@H](C)[C@H](NC(=O)[C@@H](NC(=O)[C@H](CO)NC(=O)[C@H](C)NC(=O)[C@@H](NC(=O)[C@H](CCCCN)NC(=O)[C@H](CCCCN)NC(=O)[C@@H]1CSCc2ccc(cc2)CSC[C@H](NC(=O)CNC(C)=O)C(=O)N[C@@H](Cc2ccccc2)C(=O)N[C@@H](C)C(=O)N[C@@H](C(C)C)C(=O)N1)C(C)C)C(C)C)C(=O)N[C@@H](CCCCN)C(=O)NCC(=O)N[C@@H](CC(C)C)C(N)=O (Ac-GCFAVCKKVASVIKGL-NH2; linker 2-6 via pXylylene) | 53 | 230 | 54.1 | – | – | – | – | – | – | – | – | – |
| CC[C@H](C)[C@H](NC(=O)[C@@H](NC(=O)[C@H](CO)NC(=O)[C@@H]1CSCc2ccccc2CSC[C@H](NC(=O)[C@@H](NC(=O)[C@H](C)NC(=O)[C@H](Cc2ccccc2)NC(=O)[C@H](CC(C)C)NC(=O)CNC(C)=O)C(C)C)C(=O)N[C@@H](CCCCN)C(=O)N[C@@H](CCCCN)C(=O)N[C@@H](C(C)C)C(=O)N1)C(C)C)C(=O)N[C@@H](CCCCN)C(=O)NCC(=O)N[C@@H](CC(C)C)C(N)=O (Ac-GLFAVCKKVCSVIKGL-NH2; linker 6-10 via oXylylene) | 6.27 | 5.86 | 6.58 | Active | 37.02 | Active | 15.92 | 3.9 | Active | 143 | 43.2 | – |
| CC[C@H](C)[C@@H]1NC(=O)[C@@H](NC(=O)[C@H](C)NC(=O)[C@H](Cc2ccccc2)NC(=O)[C@H](CC(C)C)NC(=O)CNC(C)=O)CSCc2cccc(c2)CSC[C@@H](C(=O)N[C@@H](C)C(=O)N[C@@H](CO)C(=O)N[C@H](C(=O)N[C@H](C(=O)N[C@@H](CCCCN)C(=O)NCC(=O)N[C@@H](CC(C)C)C(N)=O)[C@@H](C)CC)C(C)C)NC(=O)[C@H](CCCCN)NC(=O)[C@H](CCCCN)NC1=O (Ac-GLFACIKKCASVIKGL-NH2; linker 5-9 via mXylylene) | 11.8 | 8.23 | 9.25 | – | – | – | – | – | – | – | – | – |
| CC[C@H](C)[C@H](NC(=O)[C@@H](NC(=O)[C@H](CO)NC(=O)[C@@H]1CSCc2cccc(c2)CSC[C@H](NC(=O)[C@@H](NC(=O)[C@H](C)NC(=O)[C@H](Cc2ccccc2)NC(=O)[C@H](CC(C)C)NC(=O)CNC(C)=O)C(C)C)C(=O)N[C@@H](CCCCN)C(=O)N[C@@H](CCCCN)C(=O)N[C@@H](C(C)C)C(=O)N1)C(C)C)C(=O)N[C@@H](CCCCN)C(=O)NCC(=O)N[C@@H](CC(C)C)C(N)=O (Ac-GLFAVCKKVCSVIKGL-NH2; linker 6-10 via mXylylene) | 14.3 | 10.6 | 13.6 | – | – | – | – | – | – | – | – | – |
| CC[C@H](C)[C@H](NC(=O)[C@@H](NC(=O)[C@H](C)NC(=O)[C@H](Cc1ccccc1)NC(=O)[C@H](CC(C)C)NC(=O)CNC(C)=O)C(C)C)C(=O)N[C@@H](CCCCN)C(=O)N[C@@H](CCCCN)C(=O)N[C@H]1CSCc2ccc(cc2)CSC[C@@H](C(=O)N[C@@H](CCCCN)C(=O)NCC(=O)N[C@@H](CC(C)C)C(N)=O)NC(=O)[C@H](C(C)C)NC(=O)[C@H](CO)NC(=O)[C@H](C)NC1=O (Ac-GLFAVIKKCASVCKGL-NH2; linker 9-13 via pXylylene) | 25.9 | 114 | 32.1 | – | – | – | – | – | – | – | – | – |
| CC[C@H](C)[C@H](NC(=O)[C@@H](NC(=O)[C@H](C)NC(=O)[C@H](Cc1ccccc1)NC(=O)[C@H](CC(C)C)NC(=O)CNC(C)=O)C(C)C)C(=O)N[C@@H](CCCCN)C(=O)N[C@@H](CCCCN)C(=O)N[C@H]1CSCc2cccc(c2)CSC[C@@H](C(=O)N[C@@H](CCCCN)C(=O)NCC(=O)N[C@@H](CC(C)C)C(N)=O)NC(=O)[C@H](C(C)C)NC(=O)[C@H](CO)NC(=O)[C@H](C)NC1=O (Ac-GLFAVIKKCASVCKGL-NH2; linker 9-13 via mXylylene) | 10.7 | 11 | 8.34 | – | – | – | – | – | – | – | – | – |
| CC[C@H](C)[C@H](NC(=O)[C@@H](NC(=O)[C@H](C)NC(=O)[C@H](Cc1ccccc1)NC(=O)[C@H](CC(C)C)NC(=O)CNC(C)=O)C(C)C)C(=O)N[C@@H](CCCCN)C(=O)N[C@@H](CCCCN)C(=O)N[C@H]1CSCc2ccccc2CSC[C@@H](C(=O)N[C@@H](CCCCN)C(=O)NCC(=O)N[C@@H](CC(C)C)C(N)=O)NC(=O)[C@H](C(C)C)NC(=O)[C@H](CO)NC(=O)[C@H](C)NC1=O (Ac-GLFAVIKKCASVCKGL-NH2; linker 9-13 via oXylylene) | 8.42 | 7.94 | 8.68 | – | – | – | – | – | – | – | – | – |
| CC[C@H](C)[C@@H]1NC(=O)[C@@H](NC(=O)[C@H](C)NC(=O)[C@H](Cc2ccccc2)NC(=O)[C@H](CC(C)C)NC(=O)CNC(C)=O)CSCc2ccc(cc2)CSC[C@@H](C(=O)N[C@@H](C)C(=O)N[C@@H](CO)C(=O)N[C@H](C(=O)N[C@H](C(=O)N[C@@H](CCCCN)C(=O)NCC(=O)N[C@@H](CC(C)C)C(N)=O)[C@@H](C)CC)C(C)C)NC(=O)[C@H](CCCCN)NC(=O)[C@H](CCCCN)NC1=O (Ac-GLFACIKKCASVIKGL-NH2; linker 5-9 via pXylylene) | 12.8 | 12.9 | 11.8 | – | – | – | – | – | – | – | – | – |
| CC[C@H](C)[C@@H]1NC(=O)[C@@H](NC(=O)[C@H](C)NC(=O)[C@H](Cc2ccccc2)NC(=O)[C@H](CC(C)C)NC(=O)CNC(C)=O)CSCc2ccccc2CSC[C@@H](C(=O)N[C@@H](C)C(=O)N[C@@H](CO)C(=O)N[C@H](C(=O)N[C@H](C(=O)N[C@@H](CCCCN)C(=O)NCC(=O)N[C@@H](CC(C)C)C(N)=O)[C@@H](C)CC)C(C)C)NC(=O)[C@H](CCCCN)NC(=O)[C@H](CCCCN)NC1=O (Ac-GLFACIKKCASVIKGL-NH2; linker 5-9 via oXylylene) | 2.8 | 5.04 | 2.75 | Active | 75.52 | Active | 22.39 | 1.35 | Active | 143 | 1.1 | – |
| Ac-GLFAVIKKVASVIKGL-NH2 | 14.4 | 16.2 | 14 | inactive | 11.45 | – | 2.44 | 8.31 | – | 6.81 | 77.5 | Active |
| CC(=O)NCC(=O)N[C@@H](CC(C)C)C(=O)N[C@@H](Cc1ccccc1)C(=O)N[C@@H](C)C(=O)N[C@H](C(=O)N[C@H]1CSCc2ccc(cc2)-c2ccc(cc2)CSC[C@@H](C(=O)N[C@@H](CCCCN)C(=O)NCC(=O)N[C@@H](CC(C)C)C(N)=O)NC(=O)[C@H](C(C)C)NC(=O)[C@H](CO)NC(=O)[C@H](C)NC(=O)[C@H](C(C)C)NC(=O)[C@H](CCCCN)NC(=O)[C@H](CCCCN)NC1=O)C(C)C (Ac-GLFAVCKKVASVCKGL-NH2; linker 6-13 via Biphenyl(4,4'-CH2)2) | 9.2 | 7.44 | 7.47 | – | – | – | – | – | – | – | – | – |
| CC[C@H](C)[C@H](NC(=O)[C@@H](NC(=O)[C@H](CO)NC(=O)[C@@H]1CSCc2ccc(cc2)CSC[C@H](NC(=O)[C@@H](NC(=O)[C@H](C)NC(=O)[C@H](Cc2ccccc2)NC(=O)[C@H](CC(C)C)NC(=O)CNC(C)=O)C(C)C)C(=O)N[C@@H](CCCCN)C(=O)N[C@@H](CCCCN)C(=O)N[C@@H](C(C)C)C(=O)N1)C(C)C)C(=O)N[C@@H](CCCCN)C(=O)NCC(=O)N[C@@H](CC(C)C)C(N)=O (Ac-GLFAVCKKVCSVIKGL-NH2; linker 6-10 via pXylylene) | 15.6 | 13.4 | 15.7 | – | – | – | – | – | – | – | – | – |
